Measured values from PubChem BioAssay AID248 (DTP/NCI, 2004).
Several values for one entry are separate records, joined by “and”; a condition that tells them apart may be missing. Identical values can stand only once. Toxic doses and inconclusive results are not listed.

Tested on: L1210 leukemia ip in BDF1 mice, survival T/C
Assay: NCI In Vivo Anticancer Drug Screen. Data for tumor model L1210 Leukemia (intraperitoneal) in B6D2F1 (BDF1) mice
Conditions: endpoint: mean survival time, higher = longer survival
Procedure, shortened: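 Survival endpoint. Drug-treated group vs vehicle group, expressed as T divided by C. Tumor passaged by transplantation.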

[1] = dose: 50.0 mg/kg/injection, schedule: Q01DX009 (ip), vehicle: saline
[2] = dose: 100.0 mg/kg/injection, schedule: Q01DX009 (ip), vehicle: saline
[3] = dose: 200.0 mg/kg/injection, schedule: Q01DX009 (ip), vehicle: saline
[4] = dose: 400.0 mg/kg/injection, schedule: Q01DX009 (ip), vehicle: saline
[5] = dose: 100.0 mg/kg/injection, schedule: Q01DX009 (ip), vehicle: Klucel (hydroxypropylcellulose) (HPC)
[6] = dose: 100.0 mg/kg/injection, schedule: Q04DX003 (ip), vehicle: Klucel (hydroxypropylcellulose) (HPC)
[7] = dose: 200.0 mg/kg/injection, schedule: Q01DX009 (ip), vehicle: Klucel (hydroxypropylcellulose) (HPC)
[8] = dose: 200.0 mg/kg/injection, schedule: Q04DX003 (ip), vehicle: Klucel (hydroxypropylcellulose) (HPC)
[9] = dose: 400.0 mg/kg/injection, schedule: Q01DX009 (ip), vehicle: Klucel (hydroxypropylcellulose) (HPC)
[10] = dose: 400.0 mg/kg/injection, schedule: Q04DX003 (ip), vehicle: Klucel (hydroxypropylcellulose) (HPC)
[11] = dose: 100.0 mg/kg/injection, schedule: Q04DX002 (ip), vehicle: Klucel (hydroxypropylcellulose) (HPC)
[12] = dose: 200.0 mg/kg/injection, schedule: Q04DX002 (ip), vehicle: Klucel (hydroxypropylcellulose) (HPC)
[13] = dose: 400.0 mg/kg/injection, schedule: Q04DX002 (ip), vehicle: Klucel (hydroxypropylcellulose) (HPC)

Q: With `NC(CCSC(c1ccccc1)(c1ccccc1)c1ccccc1)C(=O)O` (stereo unspecified) as the molecule, how does the T/C [1] read?
A: 94 % of control and 103 % of control

Q: And the T/C [2]?
A: 95 % of control and 107 % of control

Q: What about the T/C [3] of the same molecule?
A: 97 % of control and 106 % of control

Q: And the T/C [4]?
A: 100 % of control and 108 % of control

Q: What does the source list for `CC(CN1CCOCC1)O[Si](C)(C)C` (stereo unspecified)?
A: T/C [1]: 92 % of control; T/C [2]: 96 % of control; T/C [3]: 96 % of control

Q: What does the source list for `COc1ccc(OC)c(/C=C/C=O)c1`?
A: T/C (dose: 100.0 mg/kg/injection, schedule: Q01DX001 (ip), vehicle: saline): 110 % of control; T/C (dose: 200.0 mg/kg/injection, schedule: Q01DX001 (ip), vehicle: saline): 96 % of control; T/C (dose: 400.0 mg/kg/injection, schedule: Q01DX001 (ip), vehicle: saline): 98 % of control

Q: Which results are given for `O=[N+]([O-])c1ccc(Cl)c2nonc12`?
A: T/C (dose: 1.65 mg/kg/injection, schedule: Q04DX002 (ip), vehicle: Klucel (hydroxypropylcellulose) (HPC)): 89 % of control; T/C (dose: 3.12 mg/kg/injection, schedule: Q04DX002 (ip), vehicle: Klucel (hydroxypropylcellulose) (HPC)): 92 % of control; T/C (dose: 6.25 mg/kg/injection, schedule: Q04DX002 (ip), vehicle: Klucel (hydroxypropylcellulose) (HPC)): 94 % of control

Q: How did the T/C (dose: 6.5 mg/kg/injection, schedule: Q01DX009 (ip), vehicle: other) turn out when `CN1CCN=C1c1ccc(NC(=O)Nc2ccc(NC(=O)Nc3ccc(C4=NCCN4C)cc3)cc2)cc1` was run?
A: 108 % of control

Q: What about the T/C (dose: 10.0 mg/kg/injection, schedule: Q01DX009 (ip), vehicle: other) of the same molecule?
A: 105 % of control

Q: What about the T/C (dose: 15.0 mg/kg/injection, schedule: Q01DX009 (ip), vehicle: other) of the same molecule?
A: 118 % of control

Q: And the T/C (dose: 22.0 mg/kg/injection, schedule: Q01DX009 (ip), vehicle: other)?
A: 118 % of control

Q: And the T/C (dose: 33.0 mg/kg/injection, schedule: Q01DX009 (ip), vehicle: other)?
A: 162 % of control

Q: What about the T/C (dose: 50.0 mg/kg/injection, schedule: Q01DX009 (ip), vehicle: other) of the same molecule?
A: 227 % of control

Q: What about the T/C [1] of the same molecule?
A: 191 % of control

Q: What about the T/C (dose: 75.0 mg/kg/injection, schedule: Q01DX001 (ip), vehicle: other) of the same molecule?
A: 109 % of control

Q: What about the T/C (dose: 75.0 mg/kg/injection, schedule: Q01DX009 (ip), vehicle: other) of the same molecule?
A: 204 % of control

Q: What about the T/C (dose: 75.0 mg/kg/injection, schedule: Q01DX009 (ip), vehicle: saline) of the same molecule?
A: 191 % of control

Q: And the T/C (dose: 112.0 mg/kg/injection, schedule: Q01DX009 (ip), vehicle: other)?
A: 111 % of control

Q: What about the T/C (dose: 112.0 mg/kg/injection, schedule: Q01DX009 (ip), vehicle: saline) of the same molecule?
A: 197 % of control

Q: And the T/C (dose: 150.0 mg/kg/injection, schedule: Q01DX001 (ip), vehicle: other)?
A: 124 % of control

Q: With `CCCCCC/C=C/C#CCCCCCCCC(=O)O` as the molecule, how does the T/C (dose: 37.5 mg/kg/injection, schedule: Q01DX009 (ip), vehicle: Klucel (hydroxypropylcellulose) (HPC)) read?
A: 105 % of control

Q: And the T/C (dose: 75.0 mg/kg/injection, schedule: Q01DX009 (ip), vehicle: Klucel (hydroxypropylcellulose) (HPC))?
A: 98 % of control

Q: And the T/C (dose: 150.0 mg/kg/injection, schedule: Q01DX009 (ip), vehicle: Klucel (hydroxypropylcellulose) (HPC))?
A: 102 % of control

Q: For `Cc1c(N)cc([N+](=O)[O-])c(C)c1[N+](=O)[O-]`, which T/C (dose: 50.0 mg/kg/injection, schedule: Q04DX003 (ip), vehicle: saline with Tween-80) is on record?
A: 100 % of control

Q: And the T/C (dose: 100.0 mg/kg/injection, schedule: Q04DX003 (ip), vehicle: saline with Tween-80)?
A: 96 % of control

Q: And the T/C (dose: 200.0 mg/kg/injection, schedule: Q04DX003 (ip), vehicle: saline with Tween-80)?
A: 100 % of control

Q: For `CCCNC(=O)NO`, which T/C (dose: 100.0 mg/kg/injection, schedule: Q01DX001 (ip), vehicle: carboxymethylcellulose (CMC)) is on record?
A: 103 % of control

Q: What about the T/C (dose: 150.0 mg/kg/injection, schedule: Q01DX009 (ip), vehicle: other) of the same molecule?
A: 105 % of control

Q: And the T/C (dose: 200.0 mg/kg/injection, schedule: Q01DX001 (ip), vehicle: carboxymethylcellulose (CMC))?
A: 100 % of control

Q: And the T/C (dose: 400.0 mg/kg/injection, schedule: Q01DX001 (ip), vehicle: carboxymethylcellulose (CMC))?
A: 105 % of control

Q: What does the source list for `COc1ccc2c(c1)CN(S(=O)(=O)c1ccc(C)cc1)CCC2=O`?
A: T/C [2]: 102 % of control; T/C [3]: 98 % of control; T/C [4]: 95 % of control

Q: What does the source list for `CC1(c2ccc(Cl)cc2)NC(=O)N(CC(=O)Nc2ccccc2)C1=O` (stereo unspecified)?
A: T/C (dose: 100.0 mg/kg/injection, schedule: Q04DX003 (ip), vehicle: acetone): 101 % of control; T/C (dose: 200.0 mg/kg/injection, schedule: Q04DX003 (ip), vehicle: acetone): 90 % of control; T/C (dose: 400.0 mg/kg/injection, schedule: Q04DX003 (ip), vehicle: acetone): 93 % of control

Q: Which T/C (dose: 50.0 mg/kg/injection, schedule: Q04DX003 (ip), vehicle: Klucel (hydroxypropylcellulose) (HPC)) does the source give for `CC(=O)C1CCC2(C)CCC(=O)C(C)C2C1` (stereo unspecified) here?
A: 107 % of control

Q: What about the T/C (dose: 100.0 mg/kg/injection, schedule: Q01DX001 (ip), vehicle: Klucel (hydroxypropylcellulose) (HPC)) of the same molecule?
A: 104 % of control

Q: What about the T/C [5] of the same molecule?
A: 100 % of control

Q: And the T/C [6]?
A: 104 % of control

Q: What about the T/C (dose: 200.0 mg/kg/injection, schedule: Q01DX001 (ip), vehicle: Klucel (hydroxypropylcellulose) (HPC)) of the same molecule?
A: 106 % of control

Q: What about the T/C [7] of the same molecule?
A: 100 % of control

Q: What about the T/C [8] of the same molecule?
A: 101 % of control

Q: What about the T/C (dose: 400.0 mg/kg/injection, schedule: Q01DX001 (ip), vehicle: Klucel (hydroxypropylcellulose) (HPC)) of the same molecule?
A: 101 % of control

Q: What about the T/C [9] of the same molecule?
A: 98 % of control

Q: And the T/C [10]?
A: 101 % of control

Q: For `NC(=O)CSc1nnc(SCC(N)=O)s1`, which T/C [6] is on record?
A: 106 % of control

Q: And the T/C [8]?
A: 101 % of control

Q: And the T/C [10]?
A: 90 % of control

Q: Which T/C (dose: 100.0 mg/kg/injection, schedule: Q01DX005 (ip), vehicle: Klucel (hydroxypropylcellulose) (HPC)) does the source give for `CCC1CN2C(=N1)c1ccccc1-c1cc(Cl)cc(Cl)c12` (stereo unspecified) here?
A: 88 % of control

Q: And the T/C [11]?
A: 107 % of control

Q: What about the T/C (dose: 200.0 mg/kg/injection, schedule: Q01DX005 (ip), vehicle: Klucel (hydroxypropylcellulose) (HPC)) of the same molecule?
A: 94 % of control

Q: What about the T/C [12] of the same molecule?
A: 101 % of control

Q: And the T/C (dose: 400.0 mg/kg/injection, schedule: Q01DX005 (ip), vehicle: Klucel (hydroxypropylcellulose) (HPC))?
A: 102 % of control

Q: What about the T/C [13] of the same molecule?
A: 101 % of control

Q: `CC1(C)OC(O)C(C(O)C(O)C(O)C(=O)O)O1` (stereo unspecified) was tested. Which T/C (dose: 100.0 mg/kg/injection, schedule: Q04DX002 (ip), vehicle: saline) did it give?
A: 98 % of control

Q: And the T/C (dose: 200.0 mg/kg/injection, schedule: Q04DX002 (ip), vehicle: saline)?
A: 109 % of control

Q: Which results are given for `C(=C(c1ccccc1)c1ccccc1)C1=NCCS1`?
A: T/C (dose: 50.0 mg/kg/injection, schedule: Q04DX002 (ip), vehicle: saline with Tween-80): 108 % of control; T/C (dose: 100.0 mg/kg/injection, schedule: Q03DX002 (ip), vehicle: saline with Tween-80): 98 % of control; T/C (dose: 100.0 mg/kg/injection, schedule: Q04DX002 (ip), vehicle: saline with Tween-80): 101 % of control; T/C (dose: 200.0 mg/kg/injection, schedule: Q04DX002 (ip), vehicle: saline with Tween-80): 104 % of control; T/C (dose: 400.0 mg/kg/injection, schedule: Q03DX002 (ip), vehicle: saline with Tween-80): 117 % of control

Q: Which T/C (dose: 100.0 mg/kg/injection, schedule: Q01DX009 (ip), vehicle: gum acacia) does the source give for `Oc1ccccc1C=NCCCN=Cc1ccccc1O` here?
A: 104 % of control

Q: And the T/C (dose: 100.0 mg/kg/injection, schedule: Q04DX003 (ip), vehicle: gum acacia)?
A: 98 % of control

Q: What about the T/C (dose: 200.0 mg/kg/injection, schedule: Q01DX009 (ip), vehicle: gum acacia) of the same molecule?
A: 101 % of control

Q: And the T/C (dose: 200.0 mg/kg/injection, schedule: Q04DX003 (ip), vehicle: gum acacia)?
A: 95 % of control

Q: And the T/C (dose: 400.0 mg/kg/injection, schedule: Q01DX009 (ip), vehicle: gum acacia)?
A: 101 % of control

Q: And the T/C (dose: 400.0 mg/kg/injection, schedule: Q04DX003 (ip), vehicle: gum acacia)?
A: 98 % of control

Q: How did the T/C (dose: 100.0 mg/kg/injection, schedule: Q01DX001 (ip), vehicle: saline with Tween-80) turn out when `CC1(C)C2CCC(I)(C2)C1O` (stereo unspecified) was run?
A: 105 % of control

Q: What about the T/C (dose: 200.0 mg/kg/injection, schedule: Q01DX001 (ip), vehicle: saline with Tween-80) of the same molecule?
A: 100 % of control

Q: What about the T/C (dose: 400.0 mg/kg/injection, schedule: Q01DX001 (ip), vehicle: saline with Tween-80) of the same molecule?
A: 105 % of control

Q: `O=C(/C=C/c1ccccc1)NC(=S)NCc1ccco1` was tested. Which T/C [5] did it give?
A: 94 % of control and 95 % of control

Q: What about the T/C [11] of the same molecule?
A: 97 % of control

Q: What about the T/C [6] of the same molecule?
A: 95 % of control

Q: What about the T/C [7] of the same molecule?
A: 92 % of control and 98 % of control

Q: And the T/C [12]?
A: 101 % of control and 114 % of control

Q: And the T/C [8]?
A: 95 % of control

Q: What about the T/C [9] of the same molecule?
A: 94 % of control and 95 % of control

Q: And the T/C [13]?
A: 95 % of control and 102 % of control

Q: And the T/C [10]?
A: 94 % of control
